In the supplement of paper PMC13386468:
pIC50: −log10 of the molar value.

Assays:
Experiment in all cases: IC50 for competition of protein binding to Kinobeads
Conditions in all cases: assay detail: Kinobeads competition in P. falciparum blood-stage lysate
UniProt Q8ILY9 = molecular target: UniProt Q8ILY9
UniProt Q8IJ60 = molecular target: UniProt Q8IJ60
UniProt Q8IJP8 = molecular target: UniProt Q8IJP8
UniProt Q8I3F0 = molecular target: UniProt Q8I3F0
UniProt Q8IJQ9 = molecular target: UniProt Q8IJQ9
UniProt Q8IDQ9 = molecular target: UniProt Q8IDQ9
UniProt Q8IBP0 = molecular target: UniProt Q8IBP0
UniProt Q8II16 = molecular target: UniProt Q8II16
UniProt Q8IDT0 = molecular target: UniProt Q8IDT0
UniProt Q8I5T4 = molecular target: UniProt Q8I5T4
UniProt Q8IKA0 = molecular target: UniProt Q8IKA0
UniProt Q8ILS0 = molecular target: UniProt Q8ILS0
UniProt Q8III5 = molecular target: UniProt Q8III5
UniProt Q8I3L4 = molecular target: UniProt Q8I3L4
UniProt Q8I4Y5 = molecular target: UniProt Q8I4Y5
UniProt Q8IHN4 = molecular target: UniProt Q8IHN4
UniProt C6KTE1 = molecular target: UniProt C6KTE1
UniProt Q8I1S0 = molecular target: UniProt Q8I1S0
UniProt Q8IJT8 = molecular target: UniProt Q8IJT8
UniProt Q8IIS9 = molecular target: UniProt Q8IIS9
UniProt Q8IKQ7 = molecular target: UniProt Q8IKQ7
UniProt Q8IJV7 = molecular target: UniProt Q8IJV7
UniProt Q8ILC1 = molecular target: UniProt Q8ILC1
UniProt Q8I388 = molecular target: UniProt Q8I388
UniProt O97248 = molecular target: UniProt O97248
UniProt Q8IKV6 = molecular target: UniProt Q8IKV6
UniProt C0H5I7 = molecular target: UniProt C0H5I7
UniProt Q8IDR9 = molecular target: UniProt Q8IDR9
UniProt Q8I479 = molecular target: UniProt Q8I479
UniProt Q8IB31 = molecular target: UniProt Q8IB31
UniProt Q8IJQ1 = molecular target: UniProt Q8IJQ1
UniProt Q8ID31 = molecular target: UniProt Q8ID31
UniProt Q8ILF0 = molecular target: UniProt Q8ILF0
UniProt Q8IJA0 = molecular target: UniProt Q8IJA0
UniProt Q8I3X2 = molecular target: UniProt Q8I3X2
UniProt Q8IIG7 = molecular target: UniProt Q8IIG7
UniProt C6KT03 = molecular target: UniProt C6KT03
UniProt Q8I431 = molecular target: UniProt Q8I431
UniProt Q8IKK4 = molecular target: UniProt Q8IKK4
UniProt C6KSQ1 = molecular target: UniProt C6KSQ1
UniProt Q7K6B1 = molecular target: UniProt Q7K6B1
UniProt Q8IDH5 = molecular target: UniProt Q8IDH5
UniProt Q8I2I8 = molecular target: UniProt Q8I2I8
UniProt Q8IKW5 = molecular target: UniProt Q8IKW5
UniProt Q8IAU0 = molecular target: UniProt Q8IAU0
UniProt Q8ID72 = molecular target: UniProt Q8ID72
UniProt Q8IAX5 = molecular target: UniProt Q8IAX5
UniProt Q8IDZ6 = molecular target: UniProt Q8IDZ6
UniProt Q8I488 = molecular target: UniProt Q8I488
UniProt Q8IL80 = molecular target: UniProt Q8IL80
UniProt Q8IM32 = molecular target: UniProt Q8IM32
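Further: native unpurified kinases from lysate captured on beads bearing immobilized kinase inhibitors, with bead-bound kinases quantified by mass spectrometry across compound doses.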

UniProt Q8IIG7, sequence (Q8IIG7 whole entry): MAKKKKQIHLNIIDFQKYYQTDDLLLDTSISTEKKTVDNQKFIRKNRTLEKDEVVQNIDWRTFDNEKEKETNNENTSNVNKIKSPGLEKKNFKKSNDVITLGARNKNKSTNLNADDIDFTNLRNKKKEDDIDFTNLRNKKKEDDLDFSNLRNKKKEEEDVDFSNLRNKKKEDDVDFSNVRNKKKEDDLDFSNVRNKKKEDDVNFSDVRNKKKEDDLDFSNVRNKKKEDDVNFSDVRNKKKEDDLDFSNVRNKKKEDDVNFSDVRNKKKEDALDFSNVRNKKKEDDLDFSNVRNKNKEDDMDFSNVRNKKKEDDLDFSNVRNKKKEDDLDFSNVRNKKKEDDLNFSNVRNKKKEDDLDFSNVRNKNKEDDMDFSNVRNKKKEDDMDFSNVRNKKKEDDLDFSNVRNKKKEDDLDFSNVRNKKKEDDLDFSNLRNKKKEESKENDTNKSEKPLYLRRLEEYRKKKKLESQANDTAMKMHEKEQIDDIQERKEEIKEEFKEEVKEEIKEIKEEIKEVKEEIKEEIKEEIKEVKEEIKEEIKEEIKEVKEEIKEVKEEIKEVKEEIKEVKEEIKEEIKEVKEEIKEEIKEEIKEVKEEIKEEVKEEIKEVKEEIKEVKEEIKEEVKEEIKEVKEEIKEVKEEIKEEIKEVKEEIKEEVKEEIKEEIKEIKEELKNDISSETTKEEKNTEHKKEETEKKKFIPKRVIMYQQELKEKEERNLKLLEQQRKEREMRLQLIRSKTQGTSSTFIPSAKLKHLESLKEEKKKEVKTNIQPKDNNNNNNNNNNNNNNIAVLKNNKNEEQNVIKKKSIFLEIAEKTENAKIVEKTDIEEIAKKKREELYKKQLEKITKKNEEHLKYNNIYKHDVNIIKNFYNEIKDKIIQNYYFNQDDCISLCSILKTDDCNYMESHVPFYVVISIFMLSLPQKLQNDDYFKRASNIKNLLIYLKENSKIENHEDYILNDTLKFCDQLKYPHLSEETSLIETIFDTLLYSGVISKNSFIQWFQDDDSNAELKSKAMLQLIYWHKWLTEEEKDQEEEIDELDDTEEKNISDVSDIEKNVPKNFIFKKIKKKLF
UniProt Q8ILC1, sequence (Q8ILC1 whole entry): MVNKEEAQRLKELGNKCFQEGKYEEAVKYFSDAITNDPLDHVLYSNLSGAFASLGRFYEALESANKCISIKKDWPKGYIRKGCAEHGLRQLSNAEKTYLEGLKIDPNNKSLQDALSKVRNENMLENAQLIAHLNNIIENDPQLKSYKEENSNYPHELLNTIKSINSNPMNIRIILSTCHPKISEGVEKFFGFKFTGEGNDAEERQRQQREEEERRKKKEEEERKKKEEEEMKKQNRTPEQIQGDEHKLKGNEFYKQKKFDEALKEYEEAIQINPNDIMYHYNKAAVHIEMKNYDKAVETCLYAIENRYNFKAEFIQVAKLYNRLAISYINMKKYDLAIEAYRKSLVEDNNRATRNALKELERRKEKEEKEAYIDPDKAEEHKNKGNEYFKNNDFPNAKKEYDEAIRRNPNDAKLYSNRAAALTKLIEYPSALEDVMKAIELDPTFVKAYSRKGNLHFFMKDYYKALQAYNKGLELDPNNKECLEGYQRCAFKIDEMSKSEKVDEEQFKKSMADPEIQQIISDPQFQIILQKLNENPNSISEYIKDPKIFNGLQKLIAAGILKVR
UniProt Q8IDQ9, sequence (Q8IDQ9 whole entry): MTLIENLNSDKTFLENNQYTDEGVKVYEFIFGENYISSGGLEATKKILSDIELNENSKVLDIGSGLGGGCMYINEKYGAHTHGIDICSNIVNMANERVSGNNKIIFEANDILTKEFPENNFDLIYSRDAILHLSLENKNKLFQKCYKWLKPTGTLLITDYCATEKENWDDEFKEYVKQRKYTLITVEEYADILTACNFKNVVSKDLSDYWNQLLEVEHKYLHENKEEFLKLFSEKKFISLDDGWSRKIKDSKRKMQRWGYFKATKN

O=c1[nH]c2ccc(Cl)cc2c(NC2CN3CCC2CC3)c1-c1nc2ccccc2[nH]1 (stereo unspecified) [CHIR-124]
pIC50 (UniProt Q8ILY9): < 4.70 | pIC50 (UniProt Q8IJ60): < 4.70 | pIC50 (UniProt Q8IJP8): < 4.70 | pIC50 (UniProt Q8I3F0): < 4.70 | pIC50 (UniProt Q8IJQ9): < 4.70 | pIC50 (UniProt Q8IDQ9): < 4.70 | pIC50 (UniProt Q8IBP0): < 4.70 | pIC50 (UniProt Q8II16): < 4.70 | pIC50 (UniProt Q8IDT0): < 4.70 | pIC50 (UniProt Q8I5T4): < 4.70 | pIC50 (UniProt Q8IKA0): < 4.70 | pIC50 (UniProt Q8ILS0): < 4.70 | pIC50 (UniProt Q8III5): < 4.70 | pIC50 (UniProt Q8I3L4): < 4.70 | pIC50 (UniProt Q8I4Y5): < 4.70 | pIC50 (UniProt Q8IHN4): < 4.70 | pIC50 (UniProt C6KTE1): < 4.70 | pIC50 (UniProt Q8I1S0): < 4.70 | pIC50 (UniProt Q8IJT8): < 4.70 | pIC50 (UniProt Q8IIS9): < 4.70 | pIC50 (UniProt Q8IKQ7): < 4.70 | pIC50 (UniProt Q8IJV7): < 4.70 | pIC50 (UniProt Q8ILC1): < 4.70 | pIC50 (UniProt Q8I388): < 4.70 | pIC50 (UniProt O97248): < 4.70 | pIC50 (UniProt Q8IKV6): < 4.70 | pIC50 (UniProt C0H5I7): < 4.70 | pIC50 (UniProt Q8IDR9): < 4.70 | pIC50 (UniProt Q8I479): < 4.70 | pIC50 (UniProt Q8IB31): < 4.70 | pIC50 (UniProt Q8IJQ1): < 4.70 | pIC50 (UniProt Q8ID31): < 4.70 | pIC50 (UniProt Q8ILF0): < 4.70 | pIC50 (UniProt Q8IJA0): < 4.70 | pIC50 (UniProt Q8I3X2): < 4.70 | pIC50 (UniProt Q8IIG7): < 4.70 | pIC50 (UniProt C6KT03): < 4.70 | pIC50 (UniProt Q8I431): < 4.70 | pIC50 (UniProt Q8IKK4): < 4.70 | pIC50 (UniProt C6KSQ1): 6.52 | pIC50 (UniProt Q7K6B1): < 4.70 | pIC50 (UniProt Q8IDH5): < 4.70 | pIC50 (UniProt Q8I2I8): < 4.70 | pIC50 (UniProt Q8IKW5): < 4.70 | pIC50 (UniProt Q8IAU0): < 4.70 | pIC50 (UniProt Q8ID72): < 4.70 | pIC50 (UniProt Q8IAX5): < 4.70 | pIC50 (UniProt Q8IDZ6): < 4.70 | pIC50 (UniProt Q8I488): < 4.70 | pIC50 (UniProt Q8IL80): < 4.70 | pIC50 (UniProt Q8IM32): < 4.70
